Measured values taken from publication PMC9817974, “Pharmacokinetic Basis for Using Saliva Matrine Concentrations as a Clinical Compliance Monitoring in Antitumor B Chemoprevention Trials in Humans” (Cancers, 2022).
Where “and” joins values, the source holds several entries; their conditions need not be identical. Equal values may be shown once. Read-outs that look alike come from different tables or passages of the source.

How the values were obtained:
[1] = Stability of ATB tablets (ICH storage conditions)
Method: Two independent batches of ATB tablets were tested according to International Conference on Harmonization (ICH) Guideline for long-term (12 months at 25 ± 2 °C/60 ± 5% RH), intermediate (6 months at 30 ± 2 °C/65 ± 5% RH), and accelerated (40 ± 2 °C/75 ± 5% RH) stability [12].

[2] = Sample stability of ATB components (bench, freeze-thaw, short-term, long-term); type: physicochemical; conditions: in % (unit assumed)
Method: samples for calibration were prepared. The study and QC samples were prepared on the same day as the UPLC-MS/MS analysis was done.
Calibration curves were prepared the same way as described in section S1.2.2. The linearity of each calibration curve was determined by plotting the peak area ratio of Matr, Maac, Dict, and Frax to I.S. in plasma. […] The lower limit of […] was defined based on a signal-to-noise ratio of 10:1.
S1.2.4 Extraction recovery and matrix effect
The extraction recoveries of Matr, Maac, Dict, and Frax were determined by comparing the relative peak areas obtained from blank plasma spiked with analytes and those obtained from water spiked with the same amounts of analytes. Matrix effect was determined by comparing the peak areas of blank plasma extracts spikes with analytes and I.S. with those of the standard solutions dried and reconstituted with mobile phase. The quality control samples were prepared in plasma.
Bench work (25°C for 4 hours), short-term (-20°C for 7 days), long-term (-80°C for 4 months) and three freeze-thaw cycle stabilities were determined.

[3] = parameters: method as in ref [3] of Supplement S4 (Bui et al.); conditions: mice; ref [3] of Supplement S4 (Bui et al.); cited from earlier work
[4] = Sample stability of ATB components (bench, freeze-thaw, short-term, long-term); type: physicochemical; conditions: in % (unit assumed); remark: listed apart in the source
[5] = parameters: method as in Bui et al. [9]; conditions: ref Bui et al. [9]; cited from earlier work
[6] = parameters: method as in Gao et al. [11]; conditions: plasma; 1.2 g ATB (equal to 4.8 mg Matr); ref Gao et al. [11]; cited from earlier work
[7] = parameters: method as in Gao et al. [11]; conditions: blood/plasma ratio; ref Gao et al. [11]; cited from earlier work
[8] = Single-dose oral pharmacokinetic study of ATB tablets in healthy human subjects (plasma and saliva, non-compartmental analysis); type: in vivo; conditions: for AUC(0-t) / Cmax / Tmax / half-life / Kp: both sexes, human, po; for Kp: saliva and plasma; for inter-subject variability of systemic exposure (AUC): n = 8
Method: In addition, in vivo correlation between plasma and saliva concentrations was determined as the secondary outcome.
The ratio of drug concentration in plasma and saliva were calculated using Equations (1) and (2). (1) RCmax=Cmax saliva/Cmax plasma (2) RAUC=AUC0–24 saliva/AUC0–24 plasma […]
S2.1. Human Pharmacokinetic Study Design
The study was conducted in two phases. Two self-volunteered subjects participated in the study […]
Participants refrained from consumption of […]
dosing blood and saliva samples were collected. Each participant received single-dose oral […]
saliva sample kit for salivary collection. Plasma samples were then collected by centrifugation of […]
hour post-administration. […]
administration. […] Throughout the […]
collected and saline lock was removed. Participants returned the next day morning for 24-hour […]
Participants fasted 8-12 hours before each

[9] = average of 8 healthy volunteers, single oral dose 2400 mg ATB
[10] = average of 8 healthy volunteers, single oral dose 2400 mg ATB, plasma
[11] = average of 8 healthy volunteers, single oral dose 2400 mg ATB, saliva
[12] = individual subjects, single oral dose 2400 mg ATB (8 tablets)
[13] = individual subjects, single oral dose 2400 mg ATB (8 tablets), plasma
[14] = individual subjects, single oral dose 2400 mg ATB (8 tablets), saliva

## O=C1CCC[C@@H]2[C@H]3CCCN4CCC[C@@H](CN12)[C@@H]34 [matrine]
[1]; 25 ± 2 °C/60 ± 5% RH
  remaining percentage in ATB tablets, Long term 3 months: 89.1 ± 2.7%
  remaining percentage in ATB tablets, Long term 6 months: 93.9 ± 2.1%
  remaining percentage in ATB tablets, Long term 12 months: 89.6 ± 0.8%
[1]; 30 ± 2 °C/65 ± 5% RH
  remaining percentage in ATB tablets, Intermediate 3 months: 89.6 ± 0.5%
  remaining percentage in ATB tablets, Intermediate 6 months: 92.1 ± 3.6%
[1]; 40 ± 2 °C/75 ± 5% RH
  remaining percentage in ATB tablets, Accelerated term 3 months: 87.0 ± 5.0%
  remaining percentage in ATB tablets, Accelerated term 6 months: 99.4 ± 3.2%
[2]; HQC concentration level
  Stability, 3 cycles freeze-thaw: 99.1 ± 6.7
  Stability, Bench work (4 hrs, 25 oC): 103.1 ± 2.6
  Stability, Short-term (7 days, -20 oC): 88.3 ± 6.6
[2]; LOQ concentration level
  Stability, 3 cycles freeze-thaw: 109.6 ± 1.3
[2]; MQC concentration level
  Stability, 3 cycles freeze-thaw: 93.7 ± 3.4
  Stability, Bench work (4 hrs, 25 oC): 85.8 ± 8.9
[3]
  bioavailability: 2.4 ± 1.2%
[4]; HQC concentration level
  Stability, Long-term (6 months, -80 oC): 94.6 ± 6.7
[4]; LOQ concentration level
  Stability, Bench work (4 hrs, 25 oC): 110.5 ± 18.0
  Stability, Long-term (6 months, -80 oC): 96.2 ± 0.6
  Stability, Short-term (7 days, -20 oC): 86.6 ± 3.8
[4]; MQC concentration level
  Stability, Long-term (6 months, -80 oC): 105.8 ± 3.8
  Stability, Short-term (7 days, -20 oC): 85.7 ± 8.7
[5]
  First pass effect: 26.00%
[6]
  AUC0-T Human Subjects Observed: 412.2 ng·h/mL
  Cmax Human Subjects Observed: 29.7 ng/mL
  Tmax Human Subjects Observed: 3.0 h
[7]
  Rbp: 0.97
[8]; [9]
  AUC0–24 Saliva/Plasma Ratio: 4.8 ± 1.7
  Cmax Saliva/Plasma Ratio: 6.4 ± 1.8
[8]; [10]
  AUC0–24 Plasma: 278.34 ± 84.90 ng·h/mL
  Half-Life Plasma: 10.38 ± 3.83 h
  Tmax Plasma: 2.16 ± 0.69 h
[8]; [11]
  AUC0–24 Saliva: 1302.37 ± 459.28 ng·h/mL
  Half-Life Saliva: 12.37 ± 7.01 h
  Tmax Saliva: 1.56 ± 0.82 h
[8]; plasma, 2.6 mg, plasma, 2.6 mg Matr p.o. (8 ATB tablets), read-out: AUC0-T Healthy Volunteers Observed
  AUC(0-t): 278 ng·h/mL
[8]; plasma, 2.6 mg, plasma, 2.6 mg Matr p.o. (8 ATB tablets), read-out: Cmax Healthy Volunteers Observed
  Cmax: 25.2 ng/mL
[8]; plasma, 2.6 mg, plasma, 2.6 mg Matr p.o. (8 ATB tablets), read-out: Tmax Healthy Volunteers Observed
  Tmax: 2.2 h
[8]; plasma, 2400 mg, average of 8 healthy volunteers, single oral dose 2400 mg ATB, plasma, read-out: AUC0–24 Plasma
  AUC(0-t): 266 ± 80 ng·h/mL
[8]; plasma, 2400 mg, average of 8 healthy volunteers, single oral dose 2400 mg ATB, plasma, read-out: Cmax Plasma
  Cmax: 25.2 ± 3.82 ng/mL
[8]; plasma, 2400 mg, average of 8 healthy volunteers, single oral dose 2400 mg ATB, plasma, read-out: Half-Life Plasma (converted)
  half-life: 10 ± 2.8 h
[8]; plasma, 2400 mg, average of 8 healthy volunteers, single oral dose 2400 mg ATB, plasma, read-out: Tmax Plasma
  Tmax: 2 ± 0.6 h
[8]; plasma, 2400 mg, individual subjects, single oral dose 2400 mg ATB (8 tablets), plasma, read-out: Cmax Plasma
  Cmax: 22.8 ng/mL
[8]; 2400 mg, average of 8 healthy volunteers, single oral dose 2400 mg ATB, read-out: AUC0–24 Saliva/Plasma Ratio
  Kp: 4.8 ± 2
[8]; 2400 mg, average of 8 healthy volunteers, single oral dose 2400 mg ATB, read-out: Cmax Saliva/Plasma Ratio
  Kp: 6.4 ± 1.4
[8]; saliva, 2400 mg, average of 8 healthy volunteers, single oral dose 2400 mg ATB, saliva, read-out: AUC0–24 Saliva
  AUC(0-t): 1210 ± 399 ng·h/mL
[8]; saliva, 2400 mg, average of 8 healthy volunteers, single oral dose 2400 mg ATB, saliva, read-out: Cmax Saliva
  Cmax: 153 ± 53.5 ng/mL
[8]; saliva, 2400 mg, average of 8 healthy volunteers, single oral dose 2400 mg ATB, saliva, read-out: Half-Life Saliva (converted)
  half-life: 13.4 ± 6.9 h
[8]; saliva, 2400 mg, average of 8 healthy volunteers, single oral dose 2400 mg ATB, saliva, read-out: Tmax Saliva
  Tmax: 1.5 ± 0.9 h
[8]; [12]
  AUC0–24 Saliva/Plasma Ratio: 8.57 and 4.71 and 2.86 and 4.68 and 4.61 and 4.14 and 4.81 and 3.93
  Cmax Saliva/Plasma Ratio: 6.73 and 5.60 and 3.26 and 5.12 and 7.05 and 7.41 and 7.27 and 9.08
[8]; [13]
  AUC0–24 Plasma: 173.50 ng·h/mL and 240.73 ng·h/mL and 295.05 ng·h/mL and 228.16 ng·h/mL and 408.92 ng·h/mL and 247.39 ng·h/mL and 428.83 ng·h/mL and 231.84 ng·h/mL
  Cmax Plasma: 22.70 ng/mL and 28.06 ng/mL and 23.60 ng/mL and 28.56 ng/mL and 21.28 ng/mL and 31.91 ng/mL and 22.48 ng/mL
  Half-Life Plasma: 6.99 h and 8.43 h and 15.12 h and 17.06 h and 10.66 h and 9.84 h and 6.29 h and 8.65 h
  Tmax Plasma: 3 h and 3.3 h and 1 h
[8]; [14]
  AUC0–24 Saliva: 1487.35 ng·h/mL and 1133.48 ng·h/mL and 845.11 ng·h/mL and 1067.94 ng·h/mL and 1884.98 ng·h/mL and 1024.67 ng·h/mL and 2064.14 ng·h/mL and 911.28 ng·h/mL
  Cmax Saliva: 153.18 ng/mL and 127.11 ng/mL and 91.61 ng/mL and 120.81 ng/mL and 201.34 ng/mL and 157.71 ng/mL and 231.60 ng/mL and 204.07 ng/mL
  Half-Life Saliva: 7.38 h and 9.83 h and 7.59 h and 26.39 h and 18.98 h and 11.13 h and 5.42 h and 12.23 h
  Tmax Saliva: 0.5 h and 1 h and 3 h
[8]; plasma
  inter-subject variability of systemic exposure (AUC): 30.1%
[8]; saliva
  inter-subject variability of systemic exposure (AUC): 32.8%
